Reference: patent US9370507B2, “Pyridonyl guanidine F1F0-ATPase inhibitors and therapeutic uses thereof” (Lycera Corporation, priority 2010, dated 2016)

How the values were obtained:
F1F0-ATPase = target: T1, F1F0-ATPase (Bos taurus, UniProt P13621); experiment: Inhibition of F1F0-ATPase activity in synthesizing ATP; format: biochemical; conditions: inhibition of ATP synthesis; read-out: ATP Syn IC50
T1 construct: from tissue
Description: (§1) The compounds listed in Table 4 were tested for activity against F1F0-ATPase by measuring the ability of the compounds to inhibit ATP synthesis. In addition, the compounds were assessed for cytotoxicity in Ramos cells Inhibition of F1F0-ATPase activity in synthesizing ATP and cytotoxicity in Ramos cells were measured according to the procedures described in K. M. Johnson et al. Chemistry & Biology 2005, 12, 485-496.

Ramos cells = experiment: Cytotoxicity in Ramos cells; format: cell-based; conditions: Homo sapiens, read-out: Ramos Cell EC50
Description: as §1

IC50 (F1F0-ATPase) [µM]	Structure (SMILES)	EC50 (Ramos cells) [µM]
< 10	O=C(/N=C(/NCc1ccccc1C(F)(F)F)Nc1cccc(NS(=O)(=O)CC(F)(F)F)n1)c1ccc(F)c(F)c1 [Compound A-149]	< 10
< 10	O=C(/N=C(/NCc1ccccc1C(F)(F)F)Nc1cccc(NS(=O)(=O)C2CC2)n1)c1ccc(C(F)(F)F)cc1 [Compound A-117]	< 10
< 10	N#CCS(=O)(=O)Nc1cccc(N/C(=N\C(=O)c2ccc(F)c(F)c2)NCc2ccccc2C(F)(F)F)n1 [Compound A-151]	< 10
< 10	O=C(/N=C(/NCc1ccc(Cl)cc1F)Nc1cccc(NS(=O)(=O)CC(F)(F)F)n1)c1ccc(Cl)cc1 [Compound A-136]	< 10
< 10	CS(=O)(=O)Nc1cccc(N/C(=N\C(=O)c2ccc(C(F)(F)F)cc2)Nc2cc(F)cc(Cl)c2)n1 [Compound A-123]	< 10
< 10	O=C(/N=C(/Nc1cc(F)cc(Cl)c1)Nc1cccc(O)n1)c1cccc(C(F)(F)F)c1 [Compound A-22]	< 10
< 10	CC(C)(C)CN/C(=N/C(=O)c1ccc(Cl)cc1)Nc1cccc(NS(=O)(=O)c2ccccc2C#N)n1 [Compound A-141]	< 10
< 10	CC(C)(C)CN/C(=N/C(=O)c1ccc(Cl)cc1)Nc1cccc(NS(=O)(=O)c2ccccc2)n1 [Compound A-133]	> 10
< 10	O=C(/N=C(/NCc1ccc(C(F)(F)F)cc1)Nc1cccc(O)n1)c1ccc(Cl)cc1 [Compound A-79]	< 10
> 10	Nc1cccc(N/C(=N\C(=O)c2cccc(C(F)(F)F)c2)Nc2cccc(C(F)(F)F)c2)n1 [Compound A-118]	> 10
< 10	CS(=O)(=O)Nc1cccc(N/C(=N\C(=O)c2ccc(C(F)(F)F)cc2)NCC(F)(F)F)n1 [Compound A-122]	> 10
< 10	O=C(/N=C(/NCc1cccc(Cl)c1)Nc1cccc(O)n1)c1ccc(F)c(F)c1 [Compound A-72]	< 10
< 10	CC(C)(N/C(=N/C(=O)c1ccc(C(F)(F)F)cc1)Nc1cccc(O)n1)C(F)(F)F [Compound A-51]	< 10
< 10	O=C(/N=C(/Nc1cccc(C(F)(F)F)c1)Nc1cccc(O)n1)c1ccc(F)c(F)c1 [Compound A-3]	< 10
> 10	COc1cccc(N/C(=N\C(=O)c2cccc(C(F)(F)F)c2)Nc2cccc(C(F)(F)F)c2)n1 [Compound A-119]	> 10
< 10	CCC(C)(C)N/C(=N/C(=O)c1ccc(C(F)(F)F)cc1)Nc1cccc(O)n1 [Compound A-90]	< 10
< 10	O=C(/N=C(/NCc1ccccc1Cl)Nc1cccc(O)n1)c1ccc(Cl)cc1 [Compound A-87]	< 10
< 10	CC(C)(C)N/C(=N\C(=O)c1ccc(Cl)c(F)c1)Nc1cccc(O)n1 [Compound A-44]	< 10
> 10	O=C(/N=C(/Nc1cccc(C(F)(F)F)c1)Nc1cccc(Br)n1)c1cccc(C(F)(F)F)c1 [Compound A-120]	> 10
< 10	O=C(N=C(Nc1cc(F)cc(Cl)c1)Nc1cccc(NS(=O)(=O)CC(F)(F)F)n1)c1ccc(Cl)cc1 [Compound A-135]	< 10
< 10	O=C(/N=C(/Nc1cccc(Cl)c1)Nc1cccc(O)n1)c1ccc(F)c(F)c1 [Compound A-24]	< 10

IC50 (F1F0-ATPase) [µM]	Structure (SMILES)	EC50 (Ramos cells) [µM]
< 10	O=C(/N=C(/NCc1ccc(F)c(Cl)c1)Nc1cccc(O)n1)c1ccc(C(F)(F)F)cc1 [Compound A-28]	< 10
< 10	O=C(/N=C(/Nc1cccc(O)n1)NC(C1CC1)C1CC1)c1ccc(C(F)(F)F)cc1 [Compound A-59]	< 10
< 10	O=C(N=C(Nc1cc(F)cc(Cl)c1)Nc1cccc(NS(=O)(=O)c2cccnc2)n1)c1ccc(Cl)cc1 [Compound A-147]	< 10
< 10	O=C(/N=C(/Nc1cc(F)cc(Cl)c1)Nc1cccc(O)n1)c1ccc(F)c(F)c1 [Compound A-4]	< 10
> 10	O=C(/N=C(\Nc1cccc(O)n1)NC1CCCOC1)c1ccc(Cl)cc1 (centres unmarked) [Compound A-105]	> 10
< 10	O=C(/N=C(\Nc1cccc(NS(=O)(=O)CC(F)(F)F)n1)NC(C1CC1)C1CC1)c1ccc(Cl)cc1 [Compound A-127]	< 10
< 10	O=C(/N=C(/Nc1cccc(C2CC2)c1)Nc1cccc(O)n1)c1ccc(C(F)(F)F)cc1 [Compound A-26]	< 10
< 10	CCS(=O)(=O)Nc1cccc(N/C(=N\C(=O)c2ccc(F)c(F)c2)NCc2ccccc2C(F)(F)F)n1 [Compound A-150]	> 10
< 10	Cc1cc(CN/C(=N/C(=O)c2ccc(F)c(F)c2)Nc2cccc(O)n2)no1 [Compound A-54]	> 10
< 10	O=C(/N=C(/Nc1cccc(Cl)c1)Nc1cccc(O)n1)c1cccc(C(F)(F)F)c1 [Compound A-20]	< 10
< 10	O=C(/N=C(/NCc1ccc(Cl)cc1F)Nc1cccc(NS(=O)(=O)c2cccnc2)n1)c1ccc(Cl)cc1 [Compound A-148]	< 10
> 10	COCC(C)N/C(=N/C(=O)c1ccc(Cl)cc1)Nc1cccc(O)n1 (centres unmarked) [Compound A-106]	> 10
< 10	O=C(/N=C(/NCc1ccc(F)c(Cl)c1)Nc1cccc(O)n1)c1ccc(Cl)cc1 [Compound A-82]	< 10
< 10	C[C@@H](N/C(=N/C(=O)c1ccc(F)c(F)c1)Nc1cccc(O)n1)C1CCCCC1 [Compound A-97]	< 10
< 10	CC1CCCCC1NC(=NC(=O)c1ccc(C(F)(F)F)cc1)Nc1cccc(O)n1 (centres unmarked) [Compound A-43]	> 10
< 10	CCS(=O)(=O)Nc1cccc(N/C(=N\C(=O)c2ccc(Cl)cc2)NCc2ccc(Cl)cc2F)n1 [Compound A-132]	< 10
< 10	O=C(/N=C(/NCc1ccc(Cl)c(F)c1)Nc1cccc(O)n1)c1ccc(Cl)cc1 [Compound A-83]	< 10
< 10	O=C(/N=C(\Nc1cccc(O)n1)NC1CCOCC1)c1ccc(C(F)(F)F)cc1 [Compound A-92]	< 10
< 10	CS(=O)(=O)Nc1cccc(N/C(=N\C(=O)c2ccc(F)c(F)c2)Nc2cccc(C(F)(F)F)c2)n1 [Compound A-113]	< 10
< 10	O=C(/N=C(/Nc1ccc(F)c(Cl)c1)Nc1cccc(O)n1)c1ccc(C(F)(F)F)cc1 [Compound A-5]	< 10
< 10	O=C(N=C(Nc1cccc(O)n1)NC1CCC(C(F)(F)F)CC1)c1ccc(C(F)(F)F)cc1 (centres unmarked) [Compound A-63]	< 10

IC50 (F1F0-ATPase) [µM]	Structure (SMILES)	EC50 (Ramos cells) [µM]
< 10	O=C(/N=C(/NCc1ccc(Cl)cc1F)Nc1cccc(NS(=O)(=O)c2ccccn2)n1)c1ccc(Cl)cc1 [Compound A-137]	> 10
> 10	COCC(C)N/C(=N/C(=O)c1ccc(F)c(F)c1)Nc1cccc(O)n1 (centres unmarked) [Compound A-100]	> 10
< 10	CC(C)(C)c1ccccc1N/C(=N/C(=O)c1ccc(C(F)(F)F)cc1)Nc1cccc(O)n1 [Compound A-14]	< 10
< 10	O=C(/N=C(/Nc1cc(F)cc(Cl)c1)Nc1cccc(O)n1)c1ccc(C(F)(F)F)cc1 [Compound A-2]	< 10
< 10	O=C(/N=C(/NCc1ccccc1C(F)(F)F)Nc1cccc(O)n1)c1ccc(Cl)cc1 [Compound A-77]	< 10
> 10	CN(/C(=N\C(=O)c1ccc(F)c(F)c1)Nc1cccc(O)n1)c1ccc(F)c(Cl)c1 [Compound A-10]	> 10
> 10	O=C(/N=C(/Nc1cccc(O)n1)NC1CC1)c1ccc(F)c(F)c1 [Compound A-49]	> 10
< 10	O=C(/N=C(\Nc1cccc(O)n1)NC1CCC(F)(F)CC1)c1ccc(C(F)(F)F)cc1 [Compound A-30]	< 10
< 10	O=C(/N=C(/NCc1ccc(F)c(Cl)c1)Nc1cccc(O)n1)c1ccc(F)c(F)c1 [Compound A-27]	< 10
> 10	COc1cccc(N/C(=N\C(=O)c2ccc(C(F)(F)F)cc2)NCc2ccc(Cl)c(F)c2)n1 [Compound A-66]	> 10
< 10	CC(NC(=NC(=O)c1ccc(C(F)(F)F)cc1)Nc1cccc(O)n1)c1cccc(Cl)c1 (centres unmarked) [Compound A-68]	< 10
< 10	O=C(/N=C(\Nc1cccc(O)n1)NC1CCCOC1)c1ccc(C(F)(F)F)cc1 (centres unmarked) [Compound A-93]	< 10
< 10	CC1(N/C(=N/C(=O)c2ccc(Cl)cc2)Nc2cccc(O)n2)CCCC1 [Compound A-62]	< 10
< 10	O=C(/N=C(/NCc1ccccc1C(F)(F)F)Nc1cccc(O)n1)c1ccc(C(F)(F)F)cc1 [Compound A-32]	< 10
< 10	O=C(/N=C(/NCc1ccc(Cl)cc1)Nc1cccc(O)n1)c1ccc(Cl)cc1 [Compound A-76]	< 10
< 10	CCS(=O)(=O)Nc1cccc(N/C(=N\C(=O)c2ccc(Cl)cc2)NCC(C)(C)C)n1 [Compound A-131]	< 10
< 10	CC1(N/C(=N\C(=O)c2ccc(Cl)cc2)Nc2cccc(O)n2)CCC1 [Compound A-58]	< 10
< 10	CC(C)(C)c1ccccc1N/C(=N/C(=O)c1ccc(F)c(F)c1)Nc1cccc(O)n1 [Compound A-13]	< 10
< 10	O=C(/N=C(/Nc1cc(F)cc(Cl)c1)Nc1cccc(O)n1)c1cccc(Cl)c1 [Compound A-21]	< 10
